Source: PubChem BioAssay (NCI)
Several values for one entry are separate records, joined by “and”; a condition that tells them apart may be missing. Equal values may be shown once.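 Briefly, cells in 96-well plates were exposed to five compound concentrations for 48 h, and endpoints were estimated by linear interpolation. The concentration for 50% growth inhibition is given as GI50. TGI: concentration producing complete growth inhibition.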

Tests used:
Test in all cases: growth of human tumour cells (NCI), 48 h
[1] = system: KM12 colon
[2] = system: NCI-H460 lung
[3] = system: MALME-3M melanoma
[4] = system: EKVX NSCLC
[5] = system: HL-60(TB) leukemia
[6] = system: SNB-19 CNS
[7] = system: M14 melanoma
[8] = system: RPMI-8226 leukemia
[9] = system: A549 NSCLC
[10] = system: SN12C renal

| Structure (SMILES) | TGI [1] | TGI [2] | TGI [3] | TGI [4] | TGI [5] | TGI [6] | TGI [7] | TGI [8] | TGI [9] | TGI [10] | GI50 [1] | GI50 [2] | GI50 [3] | GI50 [4] | GI50 [5] | GI50 [6] | GI50 [7] | GI50 [8] | GI50 [9] | GI50 [10] |
| --- | --- | --- | --- | --- | --- | --- | --- | --- | --- | --- | --- | --- | --- | --- | --- | --- | --- | --- | --- | --- |
| CCCCOC(=O)C1C(c2ccc(Cl)cc2)NC(c2ccc(Cl)cc2)C(C(=O)OCCCC)S1(=O)=O (centres undefined) | > 100 µM | > 100 µM | > 100 µM | > 100 µM | > 100 µM | > 100 µM | > 100 µM | > 100 µM | > 100 µM | > 100 µM |  |  |  |  |  |  |  |  |  |  |
| O=C(OCc1ccc2cccc(O)c2n1)N1CCN(C(=O)c2cc3cc(F)ccc3[nH]2)CC1 | 3.46 µM | 3.64 µM | 2.78 µM | 2.71 µM | 3.47 µM | 2.92 µM | 2.5 µM | 0.787 µM | 3.35 µM | 2.49 µM | 1.61 µM | 1.34 µM | 1.46 µM | 1.4 µM | 1.31 µM | 1.55 µM | 1.13 µM | 0.251 µM | 1.62 µM | 1.21 µM |
| O=c1n(CC2CO2)c(=O)n(CC2CO2)c(=O)n1CC1CO1 (centres undefined) | 112 µM and > 100 µM | 32 µM and 29.6 µM and 12.2 µM | 44.3 µM and 70.2 µM and > 100 µM | 175 µM | 28.1 µM and > 100 µM | 98.3 µM and > 100 µM | 57.3 µM and > 100 µM | 399 µM and > 100 µM | 134 µM and > 100 µM | 52 µM and 88.1 µM and > 100 µM | 21.3 µM | 6.61 µM and 0.743 µM | 17.1 µM and 43.2 µM |  | 5.21 µM and 2.39 µM | 22 µM and 6.55 µM | 13.2 µM and 6.77 µM | 28.4 µM and 17.6 µM | 2.04 µM | 17.7 µM and 3.55 µM |
| COCCOc1cc(F)c2c(Nc3ccc(NC(=O)Cn4cc(C(C)C)nn4)cc3)ncnc2c1 | > 100 µM | > 100 µM | > 100 µM | > 100 µM | > 100 µM | > 100 µM | > 100 µM | > 100 µM | > 100 µM | > 100 µM | 1.16 µM | 51.3 µM | 79.6 µM | > 100 µM | > 100 µM | 41 µM | > 100 µM | > 100 µM | > 100 µM | 71.6 µM |
| O=c1nc2occc2cn1C1CC(O)C(CO)O1 (centres undefined) | > 100 µM | > 100 µM | > 100 µM | > 100 µM | > 100 µM | > 100 µM | > 100 µM | > 100 µM | > 100 µM | > 100 µM |  |  |  |  |  |  |  |  |  |  |
| Cc1ccc(Cl)cc1Nc1nc(C(F)(F)F)ccc1C(=O)N1CCN(c2ccc(F)cc2)CC1 | 23.4 µM | 36.9 µM | 23.4 µM | 45.4 µM | 37.8 µM | 30.5 µM | 31.3 µM | 52.6 µM | 37.1 µM | 28.6 µM | 11.3 µM | 16 µM | 11.1 µM | 12.8 µM | 12.7 µM | 14.9 µM | 15 µM | 15.5 µM | 15.3 µM | 15 µM |
| COc1ccc(C(=O)c2cc(OC)c(C)c(OC)c2)cc1OC(=O)CCl | > 44.2 µM | 12.7 µM | 48.1 µM | > 100 µM | 0.193 µM | > 100 µM | 12.2 µM | 14.1 µM | > 100 µM | 37.1 µM | 0.13 µM | 0.37 µM | 0.572 µM | 3.6 µM | 0.066 µM | 0.388 µM | 0.0693 µM | 0.337 µM | 1.11 µM | 0.638 µM |
| COc1cc(C(=O)c2cc(C)c3[nH]c4ccc(Cl)cc4c3c2C)cc(OC)c1OC | 2.4 µM | 3.74 µM | 15.3 µM | 23.4 µM | 0.0901 µM | 19.2 µM | 12.4 µM | 18.6 µM | 28.7 µM | 13.2 µM | 0.0531 µM | 0.035 µM | 0.0791 µM | 0.254 µM | 0.0279 µM | 0.0418 µM | 0.033 µM | 0.0421 µM | 0.134 µM | 0.0509 µM |
| Cc1nnc(S(=O)(=O)c2ccc(N=Nc3c(N)nc(N)nc3N)cc2)s1 | > 100 µM | > 100 µM | > 100 µM | > 100 µM | 97.8 µM | > 100 µM | > 100 µM | > 100 µM | > 100 µM | > 100 µM |  |  |  |  |  |  |  |  |  |  |
| CC(C)c1ccc(Nc2ccc3c(OCCCN4CCN(C)CC4)cccc3n2)cc1 | 25.6 µM | 18 µM | 16.6 µM | 28.3 µM | 28.8 µM | 30 µM | 10.4 µM | 14.3 µM | 29.8 µM | 31.9 µM | 11.3 µM | 5.44 µM | 3.66 µM | 14 µM | 10.5 µM | 12.5 µM | 2.85 µM | 3.39 µM | 15.6 µM | 15.6 µM |
| Cc1cc(Br)cc(C)c1NC(=O)C(=O)C(C(=O)c1ccc2ccccc2c1)C1OC(=O)c2ccccc21 (centres undefined) | 34 µM | 20.9 µM | 34.5 µM | 65.3 µM | 30.2 µM | 29.3 µM | 30.2 µM | > 80.5 µM | > 100 µM | 50.5 µM |  |  |  |  |  |  |  |  |  |  |
| Clc1coc2nc3ccccc3c(Nc3ccc4c(c3)OCO4)c12 | 12.5 µM | 14.5 µM | 8.67 µM | 30.4 µM | 8.82 µM | > 100 µM | 13.8 µM | 4.44 µM | 22.3 µM | > 100 µM | 0.997 µM | 1.98 µM | 0.795 µM | 5.35 µM | 0.808 µM | 1.8 µM | 0.699 µM | 1.45 µM | 0.995 µM | 5.95 µM |
| CCN(CC)CCOc1ccc(/C=C(\C#N)c2ccc(OCCN(CC)CC)cc2)cc1 | 23.2 µM | 36.6 µM | 28 µM | > 80.6 µM | 38.2 µM | > 92 µM | 19.9 µM | 50.1 µM | 44.7 µM | > 100 µM |  |  |  |  |  |  |  |  |  |  |
| Cn1c(=O)c2c(nc(Nc3cc(=O)[nH]c(=O)[nH]3)n2Cc2ccccc2)n(C)c1=O | > 100 µM | > 100 µM | > 100 µM | > 100 µM | > 100 µM | > 100 µM | > 100 µM | > 100 µM | > 100 µM | > 100 µM | > 100 µM | > 100 µM | > 100 µM | 56.6 µM | > 100 µM | > 100 µM | > 100 µM | 15.9 µM | > 100 µM | > 100 µM |
